Data: US20220249637A1, “COMBINATION THERAPY OF A CELL-MEDIATED CYTOTOXIC THERAPY AND AN INHIBITOR OF A PROSURVIVAL BCL2 FAMILY PROTEIN” (Juno Therapeutics, Inc., priority 2019, published 2022)

Tests used:
CD3+CAR+ T cells = experiment: Co-culture of tumor cells and CAR T cells, venetoclax added at initiation or 24, 48 or 72 hours later (Example 9): CAR T cell number; format: cell-based
Description: (§1) FIGS. 14A and 14B show the number of CD3+CAR+ T cells and RL target cells, respectively, following a 6-day co-culture. Various concentrations of an exemplary BCL2 inhibitor were provided in the co-culture at its initiation, or 24, 48, or 72 hours after the initiation of co-culture.
(§2) Thus, in some cases, the cytotoic effects of a BCL2 inhibitor, e.g. venetoclax, and a T cell therapy (e.g. CAR T cells) may be synergistic to result in cell death of cells otherwise resistant to treatment with the T cell therapy alone. In some cases, administration of the inhibitor, e.g. venetoclax, may sensitize otherwise resistant cancer cells to CAR T cell-mediated killing when it is administered within or at about 7 days after administration of the cell therapy.

RL target cells = experiment: Co-culture of tumor cells and CAR T cells, venetoclax added at initiation or 24, 48 or 72 hours later (Example 9): tumor cell killing; format: cell-based, human
Description: as §1, §2

`CC1(C)CCC(CN2CCN(c3ccc(C(=O)NS(=O)(=O)c4ccc(NCC5CCOCC5)c([N+](=O)[O-])c4)c(Oc4cnc5[nH]ccc5c4)c3)CC2)=C(c2ccc(Cl)cc2)C1` [venetoclax] was tested, and the “deleterious effects on CAR T cells” value (CD3+CAR+ T cells; administered when activation-induced cell death of CAR T cells has peaked (e.g. 2-7 days after CAR T cells), Example 9) was “deleterious effects on CAR T cells not observed”, the “deleterious effects on the CAR T cells” value (CD3+CAR+ T cells; therapeutic dose administered 48 or 72 hours after initiation of co-culture) was “without deleterious effects on the CAR T cells being observed” and the “CAR-T cell numbers and activity” value (CD3+CAR+ T cells; therapeutic dose given concurrently or at 24 hours after initiation of co-culture) was “reduced CAR-T cell numbers and activity”. For the same molecule, the “antitumor effects of CAR T cells” value (RL target cells; inhibitor administered when activation-induced cell death of CAR T cells has peaked (e.g. 2-7 days after CAR T cells), Example 9) was “potent antitumor effects” and the “sensitization of tumor cells to CAR T cell-mediated killing” value (RL target cells; therapeutic dose administered 48 or 72 hours after initiation of co-culture of tumor cells and CAR T cells) was “able to sensitize the tumor cells to CAR T cell-mediated killing”.
